Measurements: patent US9833497B2, “Human originated EGF domain proteins and use of the same” (CHENGDU SOURCEBIO LIMITED-LIABILITY COMPANY, priority 2013, dated 2017)

Legend:
Format in all cases: cell-based
[1] = system: Aeromonas hydrophila; test: MIC against Gram-negative bacteria: Aeromonas hydrophila; conditions: 5×10^5 CFU/mL
Method in brief: (§1)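 First, colonies from LB agar were grown in LB at 37° C, 185 rpm, to McFarland turbidity 0.5, then centrifuged and resuspended in fresh LB. Next, wells received 5×10^5 CFU/mL bacteria plus two-fold serially diluted EGF domain protein (triplicate). Finally, plates were shaken at 37° C and the no-growth concentration taken as MIC.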

[2] = system: Proteus vulgaris; test: MIC against Gram-negative bacteria: Proteus vulgaris; conditions: 5×10^5 CFU/mL
Method in brief: as §1

[3] = system: Serratia marcescens; test: MIC against Gram-negative bacteria: Serratia marcescens; conditions: 5×10^5 CFU/mL
Method in brief: as §1

[4] = system: Pseudomonas aeruginosa; test: MIC against Gram-negative bacteria: Pseudomonas aeruginosa; conditions: 5×10^5 CFU/mL
Method in brief: as §1

[5] = system: Proteus mirabilis; test: MIC against Gram-negative bacteria: Proteus mirabilis; conditions: 5×10^5 CFU/mL
Method in brief: as §1

[6] = system: E. coli BL21; test: MIC against Gram-negative bacteria: E. coli BL21; conditions: 5×10^5 CFU/mL
Method in brief: as §1

[7] = system: Enterobacter cloacae; test: MIC against Gram-negative bacteria: Enterobacter cloacae; conditions: 5×10^5 CFU/mL
Method in brief: as §1

[8] = system: Citrobacter diversus; test: MIC against Gram-negative bacteria: Citrobacter diversus; conditions: 5×10^5 CFU/mL
Method in brief: as §1

[9] = system: E. coli DH5α; test: Antibacterial activity: MIC and growth curve against E. coli DH5α in 96-well plate; conditions: minimal inhibitory concentration against E. coli DH5α; 96-well plate, 5×10^5 CFU/mL, 37° C., judged after 8 h
Method in brief: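 MIC taken as lowest protein level with no bacterial growth, tracked by A600 every 30 min during 37 °C, 175 rpm culture. Two-fold protein series 50-12.5 μg/mL final, triplicate wells, against 5×10^5 CFU/mL of LB-washed mid-log cells.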

[10] = system: Moraxella catarrhalis; test: MIC against Gram-negative bacteria: Moraxella catarrhalis; conditions: 5×10^5 CFU/mL
Method in brief: as §1

[11] = system: Klebsiella pneumonia; test: MIC against Gram-negative bacteria: Klebsiella pneumonia; conditions: 5×10^5 CFU/mL
Method in brief: as §1

[12] = 10 h cultivation at 37° C., two-fold serial dilution

PRT879 (TLKQCASAPCRNGGVCREGWNRFICDCIGTGFLGRVCE; listed as Homo sapiens)
12.5 µg/mL: MIC (μg/mL) A. hydrophila ([1]; 10 h cultivation at 37° C.) | MIC (μg/mL) P. vulgaris ([2]; 10 h cultivation at 37° C.) | MIC (μg/mL) P. aeruginosa ([4]; 10 h cultivation at 37° C.) | MIC (μg/mL) P. mirabilis ([5]; 10 h cultivation at 37° C.) | MIC (μg/mL) M. catarrhalis ([10]; 10 h cultivation at 37° C.) | MIC (μg/mL) K. pneumonia ([11]; 10 h cultivation at 37° C.)
50 µg/mL: MIC (μg/mL) E. coli BL21 ([6]; 10 h cultivation at 37° C.)
25 µg/mL: MIC (μg/mL) S. marcescens ([3]; 10 h cultivation at 37° C.) | MIC (μg/mL) E. cloacae ([7]; 10 h cultivation at 37° C.) | MIC (μg/mL) C. diversus ([8]; 10 h cultivation at 37° C.) | MIC [9]

PRT893 (NINECSSQPCRHGGTCQDRDNAYLCFCLKGTTGPNCE; listed as Homo sapiens)
50 µg/mL: MIC (μg/mL) P. vulgaris ([2]; 10 h cultivation at 37° C.) | MIC (μg/mL) P. aeruginosa ([4]; 10 h cultivation at 37° C.) | MIC (μg/mL) C. diversus ([8]; 10 h cultivation at 37° C.)
25 µg/mL: MIC (μg/mL) A. hydrophila ([1]; 10 h cultivation at 37° C.) | MIC (μg/mL) E. coli BL21 ([6]; 10 h cultivation at 37° C.) | MIC (μg/mL) M. catarrhalis ([10]; 10 h cultivation at 37° C.) | MIC (μg/mL) K. pneumonia ([11]; 10 h cultivation at 37° C.)
12.5 µg/mL: MIC (μg/mL) S. marcescens ([3]; 10 h cultivation at 37° C.) | MIC (μg/mL) P. mirabilis ([5]; 10 h cultivation at 37° C.) | MIC (μg/mL) E. cloacae ([7]; 10 h cultivation at 37° C.) | MIC [9]

PRT262 (CLIHHGGCHIHAECIPTGPQQVSCSCREGYSGDGIRTC; listed as Homo sapiens)
50 µg/mL: MIC (μg/mL) P. aeruginosa ([4]; 10 h cultivation at 37° C.) | MIC (μg/mL) C. diversus ([8]; 10 h cultivation at 37° C.)
25 µg/mL: MIC (μg/mL) A. hydrophila ([1]; 10 h cultivation at 37° C.) | MIC (μg/mL) P. vulgaris ([2]; 10 h cultivation at 37° C.) | MIC (μg/mL) E. coli BL21 ([6]; 10 h cultivation at 37° C.) | MIC (μg/mL) M. catarrhalis ([10]; 10 h cultivation at 37° C.) | MIC (μg/mL) K. pneumonia ([11]; 10 h cultivation at 37° C.)
12.5 µg/mL: MIC (μg/mL) S. marcescens ([3]; 10 h cultivation at 37° C.) | MIC (μg/mL) P. mirabilis ([5]; 10 h cultivation at 37° C.) | MIC (μg/mL) E. cloacae ([7]; 10 h cultivation at 37° C.) | MIC [9]

PRT465 (ALDPCASGPCLNGGSCSNTQDPQSYHCSCPRAFTGKDCG; listed as Homo sapiens)
50 µg/mL: MIC against S. marcescens ([3]; 96-well plate, 37° C., 10 h) | MIC against P. aeruginosa ([4]; 96-well plate, 37° C., 10 h) | MIC against P. mirabilis ([5]; 96-well plate, 37° C., 10 h) | MIC against E. cloacae ([7]; 96-well plate, 37° C., 10 h) | MIC against C. diversus ([8]; 96-well plate, 37° C., 10 h) | MIC [9]
12.5 µg/mL: MIC against A. hydrophila ([1]; 96-well plate, 37° C., 10 h) | MIC against P. vulgaris ([2]; 96-well plate, 37° C., 10 h) | MIC against E. coli BL21 ([6]; 96-well plate, 37° C., 10 h) | MIC against M. catarrhalis ([10]; 96-well plate, 37° C., 10 h) | MIC against K. pneumonia ([11]; 96-well plate, 37° C., 10 h)

PRT1120 (DEDECASSPCQHGGRCLQRSDPALYGGVQAAFPGAFSFRHAAGFLCHCPPGFEGADCG; listed as Homo sapiens)
25 µg/mL: MIC P. aeruginosa [4, 12] | MIC E. cloacae [7, 12] | MIC [9]
50 µg/mL: MIC P. mirabilis [5, 12] | MIC C. diversus [8, 12] | MIC K. pneumonia [11, 12]
12.5 µg/mL: MIC A. hydrophila [1, 12] | MIC P. vulgaris [2, 12] | MIC S. marcescens [3, 12] | MIC E. coli BL21 [6, 12] | MIC M. catarrhalis [10, 12]

PRT744 (GWNECASSNGHCSHLCLAVPVGGFVCGCPAHYSLNADNRTCS; listed as Homo sapiens)
25 µg/mL: MIC (μg/mL) P. vulgaris ([2]; 10 h cultivation at 37° C.) | MIC (μg/mL) P. mirabilis ([5]; 10 h cultivation at 37° C.)
12.5 µg/mL: MIC (μg/mL) S. marcescens ([3]; 10 h cultivation at 37° C.) | MIC (μg/mL) P. aeruginosa ([4]; 10 h cultivation at 37° C.) | MIC (μg/mL) E. cloacae ([7]; 10 h cultivation at 37° C.) | MIC (μg/mL) C. diversus ([8]; 10 h cultivation at 37° C.) | MIC [9]
50 µg/mL: MIC (μg/mL) A. hydrophila ([1]; 10 h cultivation at 37° C.) | MIC (μg/mL) E. coli BL21 ([6]; 10 h cultivation at 37° C.) | MIC (μg/mL) M. catarrhalis ([10]; 10 h cultivation at 37° C.) | MIC (μg/mL) K. pneumonia ([11]; 10 h cultivation at 37° C.)

PRT830 (CALGNGGCQHHCVQLTITRHRCQCRPGFQLQEDGRHC; listed as Homo sapiens)
25 µg/mL: MIC (μg/mL) P. mirabilis ([5]; 10 h cultivation at 37° C.) | MIC (μg/mL) E. cloacae ([7]; 10 h cultivation at 37° C.) | MIC (μg/mL) C. diversus ([8]; 10 h cultivation at 37° C.)
12.5 µg/mL: MIC (μg/mL) A. hydrophila ([1]; 10 h cultivation at 37° C.) | MIC (μg/mL) P. vulgaris ([2]; 10 h cultivation at 37° C.) | MIC (μg/mL) S. marcescens ([3]; 10 h cultivation at 37° C.) | MIC (μg/mL) P. aeruginosa ([4]; 10 h cultivation at 37° C.) | MIC (μg/mL) E. coli BL21 ([6]; 10 h cultivation at 37° C.) | MIC [9] | MIC (μg/mL) M. catarrhalis ([10]; 10 h cultivation at 37° C.) | MIC (μg/mL) K. pneumonia ([11]; 10 h cultivation at 37° C.)
